In patent US20110071150A1 (priority 2009, published 2011):

Test system: Jurkat IL-2 Production
Assay: Jurkat IL-2 Production Assay
Format: cell-based
Conditions: Homo sapiens, Jurkat cell (ATCC), 18-20 h incubation, PHA 5 μg/mL with 1% FBS, or PMA/Ionomycin with 30% FBS (table does not say which)
Experimental: Jurkat IL-2 Production Assay
Cell: Jurkat cell (ATCC) was grown in RPMI 1640 with 10% FBS and 1% penicillin/streptomycin. The cell density was kept at 1.2-1.8×10^6/mL in culture flask before seeding into culture plate, and the cell density in the plate was 0.5×10^6/[…]/well.
Culture media: RPMI 1640 with 1% FBS or 30% FBS for high serum assay.
Test compound: serial dilution was done in 100% DMSO, and intermediate dilution was done with RPMI 1640 medium with 1% FBS. The DMSO final concentration in culture well was 0.25%.
Stimulant: PHA (Sigma#L9017-10MG) was used for the assay with 1% FBS in culture medium, and added after 10 minutes exposure of cell to compound/DMSO. The PHA final concentration in culture well was 5 μg/mL. PMA (Sigma# P-8139 5MG)/Ionomycin (Sigma# 10634-5MG) was used for the assay with 30% FBS in culture medium, and added at same time point as the 1% FBS culture assay. The final concentration of PMA was 50 ng/mL, and Ionomycin final concentration was 500 ng/mL.
Incubation: at 37° C. with 5% CO2 and 95% humidity for 18 h˜20 h.
IC50: IC50 was calculated with the data analysis software XLfit4, General Pharmacology model 251.

Q: With Cn1nc(C(F)(F)F)cc1-c1ccc2[nH]c(-c3cccc(Cl)c3Cl)cc2c1 [Example 41, 2-(2,3-Dichloro-phenyl)-5-(2-methyl-5-trifluoromethyl-2H-pyrazol-3-yl)-1H-indole] as the compound, how does the IC50 read?
A: Its IC50 is 486 nM.

Q: With Cn1nc(C(F)(F)F)cc1-c1ccc2[nH]c(-c3cc(F)ccc3Cl)cc2c1 [Example 42, 2-(2-Chloro-5-fluoro-phenyl)-5-(2-methyl-5-trifluoromethyl-2H-pyrazol-3-yl)-1H-indole] as the compound, how does the IC50 read?
A: The IC50 was 204 nM.

Q: For COc1nccc(-c2cc3cc(-c4cc(C(F)(F)F)nn4C)ccc3[nH]2)c1Cl [Example 43, 2-(3-Chloro-2-methoxy-pyridin-4-yl)-5-(2-methyl-5-trifluoromethyl-2H-pyrazol-3-yl)-1H-indole], which IC50 is on record?
A: Its IC50 is 87 nM.

Q: With Cn1nc(C(F)(F)F)cc1-c1ccc2[nH]c(-c3ccncc3F)cc2c1 [Example 44, 2-(3-Fluoro-pyridin-4-yl)-5-(2-methyl-5-trifluoromethyl-2H-pyrazol-3-yl)-1H-indole] as the compound, how does the IC50 read?
A: Its IC50 is 169 nM.

Q: With Cc1noc(C)c1-c1cc2cc(-c3cc(C(F)(F)F)nn3C)ccc2[nH]1 [Example 45, 2-(3,5-Dimethyl-isoxazol-4-yl)-5-(2-methyl-5-trifluoromethyl-2H-pyrazol-3-yl)-1H-indole] as the compound, how does the IC50 read?
A: Its IC50 is 375 nM.

Q: With CCn1nc(C(F)(F)F)cc1-c1ccc2[nH]c(-c3c(F)cccc3F)cc2c1 [Example 46, 2-(2,6-Difluoro-phenyl)-5-(2-ethyl-5-trifluoromethyl-2H-pyrazol-3-yl)-1H-indole] as the compound, how does the IC50 read?
A: The IC50 was 44 nM.

Q: For CCn1nc(C(F)(F)F)cc1-c1ccc2[nH]c(-c3c(F)cccc3Cl)cc2c1 [Example 47, 2-(2-Chloro-6-fluoro-phenyl)-5-(2-ethyl-5-trifluoromethyl-2H-pyrazol-3-yl)-1H-indole], which IC50 is on record?
A: Its IC50 is 40 nM.

Q: Cn1nc(C(F)(F)F)cc1-c1ccc2[nH]c(-c3c(F)cccc3Cl)cc2c1 [Example 48, 2-(2-Chloro-6-fluoro-phenyl)-5-(2-methyl-5-trifluoromethyl-2H-pyrazol-3-yl)-1H-indole] was tested. Which IC50 did it give?
A: The IC50 was 12 nM.

Q: With CCn1nc(-c2cccnc2)cc1-c1ccc2[nH]c(-c3c(F)cccc3Cl)cc2c1 [Example 49, 2-(2-Chloro-6-fluoro-phenyl)-5-(2-ethyl-5-pyridin-3-yl-2H-pyrazol-3-yl)-1H-indole] as the compound, how does the IC50 read?
A: The IC50 was 13 nM.

Q: Cc1sc(-c2cccnc2)nc1-c1ccc2[nH]c(-c3c(F)cccc3Cl)cc2c1 [Example 50, 2-(2-Chloro-6-fluoro-phenyl)-5-(5-methyl-2-pyridin-3-yl-thiazol-4-yl)-1H-indole] was tested. Which IC50 did it give?
A: The IC50 was 13 nM.

Q: How did the IC50 turn out when Cn1nc(-c2ccncc2)cc1-c1ccc2[nH]c(-c3c(F)cccc3Cl)cc2c1 [Example 51, 2-(2-Chloro-6-fluoro-phenyl)-5-(2-methyl-5-pyridin-4-yl-2H-pyrazol-3-yl)-1H-indole] was run?
A: Its IC50 is 524 nM.

Q: Cc1cc(-c2ncco2)ccc1-c1ccc2[nH]c(-c3c(F)cccc3Cl)cc2c1 [Example 52, 2-(2-Chloro-6-fluoro-phenyl)-5-(2-methyl-4-oxazol-2-yl-phenyl)-1H-indole] was tested. Which IC50 did it give?
A: Its IC50 is 62 nM.

Q: COC(=O)c1ccc(-c2ccc3[nH]c(-c4c(F)cccc4Cl)cc3c2)c(C)c1 [Example 53, 4-[2-(2-Chloro-6-fluoro-phenyl)-1H-indol-5-yl]-3-methyl-benzoic acid methyl ester] was tested. Which IC50 did it give?
A: The IC50 was 14 nM.

Q: How did the IC50 turn out when COc1ccc(-c2ccc3[nH]c(-c4c(F)cccc4Cl)cc3c2)c(OC)c1 [Example 54, 2-(2-chloro-6-fluoro-phenyl)-5-(2,4-dimethoxy-phenyl)-1H-indole] was run?
A: Its IC50 is 33 nM.

Q: How did the IC50 turn out when Fc1cccc(Cl)c1-c1cc2cc(-c3ccc(C(F)(F)F)cc3C(F)(F)F)ccc2[nH]1 [Example 55, 5-(2,4-Bis-trifluoromethyl-phenyl)-2-(2-chloro-6-fluoro-phenyl)-1H-indole] was run?
A: Its IC50 is 79 nM.

Q: Fc1cccc(Cl)c1-c1cc2cc(-c3ccc(C(F)(F)F)cc3Cl)ccc2[nH]1 [Example 56, 2-(2-Chloro-6-fluoro-phenyl)-5-(2-chloro-4-trifluoromethyl-phenyl)-1H-indole] was tested. Which IC50 did it give?
A: The IC50 was 132 nM.

Q: Which IC50 does the source give for Cc1sc(-c2ccccn2)nc1-c1ccc2[nH]c(-c3ccc(F)cc3Cl)cc2c1 [Example 57, 2-(2-Chloro-4-fluoro-phenyl)-5-(5-methyl-2-pyridin-2-yl-thiazol-4-yl)-1H-indole] here?
A: Its IC50 is 301 nM.

Q: With Cc1sc(-c2ccccn2)nc1-c1ccc2[nH]c(-c3cc(F)ccc3Cl)cc2c1 [Example 58, 2-(2-Chloro-5-fluoro-phenyl)-5-(5-methyl-2-pyridin-2-yl-thiazol-4-yl)-1H-indole] as the compound, how does the IC50 read?
A: The IC50 was 689 nM.

Q: How did the IC50 turn out when Cn1nc(C(F)(F)F)cc1-c1ccc2[nH]c(-c3ccccc3Cl)cc2c1 [Example 59, 2-(2-Chloro-phenyl)-5-(2-methyl-5-trifluoromethyl-2H-pyrazol-3-yl)-1H-indole] was run?
A: Its IC50 is 105 nM.

Q: For Cc1ccccc1-c1cc2cc(-c3cc(C(F)(F)F)nn3C)ccc2[nH]1 [Example 60, 5-(2-Methyl-5-trifluoromethyl-2H-pyrazol-3-yl)-2-o-tolyl-1H-indole], which IC50 is on record?
A: Its IC50 is 140 nM.

Q: Cn1nc(C2CC2)cc1-c1ccc2[nH]c(-c3ccccc3Cl)cc2c1 [Example 61, 2-(2-Chloro-phenyl)-5-(5-cyclopropyl-2-methyl-2H-pyrazol-3-yl)-1H-indole] was tested. Which IC50 did it give?
A: The IC50 was 848 nM.

Q: For Cc1ccccc1-c1cc2cc(-c3cc(C4CC4)nn3C)ccc2[nH]1 [Example 62, 5-(5-Cyclopropyl-2-methyl-2H-pyrazol-3-yl)-2-o-tolyl-1H-indole], which IC50 is on record?
A: Its IC50 is 964 nM.

Q: Cn1nc(C2CC2)cc1-c1ccc2[nH]c(-c3c(F)cccc3F)cc2c1 [Example 63, 5-(5-Cyclopropyl-2-methyl-2H-pyrazol-3-yl)-2-(2,6-difluoro-phenyl)-1H-indole] was tested. Which IC50 did it give?
A: Its IC50 is 368 nM.

Q: Which IC50 does the source give for Cc1sc(-c2cccnc2)nc1-c1ccc2[nH]c(-c3ccncc3F)cc2c1 [Example 64, 2-(3-Fluoro-pyridin-4-yl)-5-(5-methyl-2-pyridin-3-yl-thiazol-4-yl)-1H-indole] here?
A: The IC50 was 81 nM.

Q: Which IC50 does the source give for COC(=O)c1ccc(-c2cc3cc(-c4nc(-c5cccnc5)sc4C)ccc3[nH]2)c(C)c1 [Example 65, Methyl-4-[5-(5-methyl-2-pyridin-3-yl-thiazol-4-yl)-1H-indol-2-yl]-benzoic acid methyl ester] here?
A: The IC50 was 71 nM.

Q: For COc1cc(F)c(-c2cc3cc(-c4nc(-c5cccnc5)sc4C)ccc3[nH]2)c(F)c1 [Example 66, 2-(2,6-Difluoro-4-methoxy-phenyl)-5-(5-methyl-2-pyridin-3-yl-thiazol-4-yl)-1H-indole], which IC50 is on record?
A: Its IC50 is 33 nM.

Q: For Cc1sc(-c2cccnc2)nc1-c1ccc2[nH]c(-c3ccc(F)cc3Cl)cc2c1 [Example 67, 2-(2-Chloro-4-fluoro-phenyl)-5-(5-methyl-2-pyridin-3-yl-thiazol-4-yl)-1H-indole], which IC50 is on record?
A: Its IC50 is 63 nM.

Q: For Cc1sc(-c2cccnc2)nc1-c1ccc2[nH]c(-c3cncnc3C(C)C)cc2c1 [Example 68, 2-(4-Isopropyl-pyrimidin-5-yl)-5-(5-methyl-2-pyridin-3-yl-thiazol-4-yl)-1H-indole], which IC50 is on record?
A: The IC50 was 152 nM.

Q: Which IC50 does the source give for Cc1sc(C(C)C)nc1-c1ccc2[nH]c(-c3ccccc3Cl)cc2c1 [Example 69, 2-(2-Chloro-phenyl)-5-(2-isopropyl-5-methyl-thiazol-4-yl)-1H-indole] here?
A: Its IC50 is 949 nM.

Q: Cc1sc(C(C)C)nc1-c1ccc2[nH]c(-c3c(F)cccc3F)cc2c1 [Example 70, 2-(2,6-Difluoro-phenyl)-5-(2-isopropyl-5-methyl-thiazol-4-yl)-1H-indole] was tested. Which IC50 did it give?
A: The IC50 was 356 nM.

Q: With Cc1sc(C2CC2)nc1-c1ccc2[nH]c(-c3ccccc3Cl)cc2c1 [Example 71] as the compound, how does the IC50 read?
A: The IC50 was 584 nM.

Q: Cc1sc(C2CC2)nc1-c1ccc2[nH]c(-c3c(F)cccc3F)cc2c1 [Example 72, 5-(2-Cyclopropyl-5-methyl-thiazol-4-yl)-2-(2,6-difluoro-phenyl)-1H-indole] was tested. Which IC50 did it give?
A: The IC50 was 397 nM.

Q: For Cc1sc(-c2ncco2)nc1-c1ccc2[nH]c(-c3c(F)cccc3F)cc2c1 [Example 73, 2-(2,6-Difluoro-phenyl)-5-(5-methyl-2-oxazol-2-yl-thiazol-4-yl)-1H-indole], which IC50 is on record?
A: Its IC50 is 60 nM.

Q: Which IC50 does the source give for Cc1sc(C2CCOCC2)nc1-c1ccc2[nH]c(-c3c(F)cccc3F)cc2c1 [Example 74, 2-(2,6-Difluoro-phenyl)-5-[5-methyl-2-(tetrahydro-pyran-4-yl)-thiazol-4-yl]-1H-indole] here?
A: The IC50 was 668 nM.

Q: With Cn1nc(-c2cccnc2)cc1-c1ccc2[nH]c(-c3ccccc3F)cc2c1 [Example 75, 2-(2-Fluoro-phenyl)-5-(2-methyl-5-pyridin-3-yl-2H-pyrazol-3-yl)-1H-indole] as the compound, how does the IC50 read?
A: Its IC50 is 310 nM.

Q: How did the IC50 turn out when CCn1nc(-c2cccnc2)cc1-c1ccc2[nH]c(-c3ccccc3F)cc2c1 [Example 76, 2-(2-Fluoro-phenyl)-5-(2-ethyl-5-pyridin-3-yl-2H-pyrazol-3-yl)-1H-indole] was run?
A: Its IC50 is 108 nM.

Q: How did the IC50 turn out when Cn1nc(-c2cccnc2)cc1-c1ccc2[nH]c(-c3ccccc3Cl)cc2c1 [Example 77, 2-(2-Chloro-phenyl)-5-(2-methyl-5-pyridin-3-yl-2H-pyrazol-3-yl)-1H-indole] was run?
A: Its IC50 is 169 nM.

Q: How did the IC50 turn out when CCn1nc(-c2cccnc2)cc1-c1ccc2[nH]c(-c3ccccc3Cl)cc2c1 [Example 78, 2-(2-Chloro-phenyl)-5-(2-ethyl-5-pyridin-3-yl-2H-pyrazol-3-yl)-1H-indole] was run?
A: The IC50 was 95 nM.

Q: Which IC50 does the source give for Cc1ccccc1-c1cc2cc(-c3cc(-c4cccnc4)nn3C)ccc2[nH]1 [Example 79, 5-(2-Methyl-5-pyridin-3-yl-2H-pyrazol-3-yl)-2-o-tolyl-1H-indole] here?
A: The IC50 was 139 nM.
